Laboratory results as given in PubChem BioAssay AID2060908 (Molecular Pharmacology Branch, DTP, NCI, 2025).
pIC50: −log10 of the molar value.

Test system: 186277-243-T-J2-PDC complex spheroids, viability
Assay: Anticancer human tumor 186277-243-T-J2-PDC patient-derived colon adenocarcinoma cell line growth inhibition [RAS]
Conditions: for pIC50: curve of first compound; for viability, T/C: stronger effect = lower value
Procedure, shortened: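 Multi-cell-type spheroids: tumor cells plus HUVEC endothelial cells and mesenchymal stem cells. RAS-pathway inhibitors were combined with targeted agents, each dosed in half-log steps down from clinical Cmax, or from 10 microM when Cmax was unknown.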

[1] = second compound 0.000949 µM, first compound 0.0316 µM
[2] = second compound 0.000949 µM, first compound 0.1 µM
[3] = second compound 0.000949 µM, first compound 0.316 µM
[4] = second compound 0.000949 µM, first compound 1 µM
[5] = second compound 0.000949 µM, first compound 3.16 µM
[6] = second compound 0.000949 µM, first compound 10 µM
[7] = second compound 0.003 µM, first compound 0.0316 µM
[8] = second compound 0.003 µM, first compound 0.1 µM
[9] = second compound 0.003 µM, first compound 0.316 µM
[10] = second compound 0.003 µM, first compound 1 µM
[11] = second compound 0.003 µM, first compound 3.16 µM
[12] = second compound 0.003 µM, first compound 10 µM
[13] = second compound 0.00949 µM, first compound 0.0316 µM
[14] = second compound 0.00949 µM, first compound 0.1 µM
[15] = second compound 0.00949 µM, first compound 0.316 µM
[16] = second compound 0.00949 µM, first compound 1 µM
[17] = second compound 0.00949 µM, first compound 3.16 µM
[18] = second compound 0.00949 µM, first compound 10 µM
[19] = second compound 0.03 µM, first compound 0.0316 µM
[20] = second compound 0.03 µM, first compound 0.1 µM
[21] = second compound 0.03 µM, first compound 0.316 µM
[22] = second compound 0.03 µM, first compound 1 µM
[23] = second compound 0.03 µM, first compound 3.16 µM
[24] = second compound 0.03 µM, first compound 10 µM
[25] = second compound 0.0949 µM, first compound 0.0316 µM
[26] = second compound 0.0949 µM, first compound 0.1 µM
[27] = second compound 0.0949 µM, first compound 0.316 µM
[28] = second compound 0.0949 µM, first compound 1 µM
[29] = second compound 0.0949 µM, first compound 3.16 µM
[30] = second compound 0.0949 µM, first compound 10 µM
[31] = second compound 0.3 µM, first compound 0.0316 µM
[32] = second compound 0.3 µM, first compound 0.1 µM
[33] = second compound 0.3 µM, first compound 0.316 µM
[34] = second compound 0.3 µM, first compound 1 µM
[35] = second compound 0.3 µM, first compound 3.16 µM
[36] = second compound 0.3 µM, first compound 10 µM
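Also: spheroids exposed to compounds for 7 days before viability read.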

## Cc1nc(N2CCC3(CC2)COC(C)C3N)c(CO)nc1Sc1ccnc(N)c1Cl (stereo unspecified) + CCn1c(-c2cccnc2C(C)OC)c2c3cc(ccc31)N1CCOC(CC(NC(=O)C(C(C)C)N(C)C(=O)C3(F)CCN(C(=O)C#CC(C)(C)N(C)C)CC3)C(=O)N3CCCC(N3)C(=O)OCC(C)(C)C2)C1
Second compound 0.000949 µM
  pIC50: < 5.00
Second compound 0.003 µM
  pIC50: < 5.00
Second compound 0.00949 µM
  pIC50: < 5.00
Second compound 0.03 µM
  pIC50: < 5.00
Second compound 0.0949 µM
  pIC50: < 5.00
Second compound 0.3 µM
  pIC50: < 5.00
[1]
  viability, T/C: 88.9%
[2]
  viability, T/C: 85.4%
[3]
  viability, T/C: 111%
[4]
  viability, T/C: 104%
[5]
  viability, T/C: 141%
[6]
  viability, T/C: 131%
[7]
  viability, T/C: 91.8%
[8]
  viability, T/C: 100%
[9]
  viability, T/C: 98.2%
[10]
  viability, T/C: 114%
[11]
  viability, T/C: 133%
[12]
  viability, T/C: 130%
[13]
  viability, T/C: 99.9%
[14]
  viability, T/C: 130%
[15]
  viability, T/C: 105%
[16]
  viability, T/C: 113%
[17]
  viability, T/C: 132%
[18]
  viability, T/C: 128%
[19]
  viability, T/C: 92.3%
[20]
  viability, T/C: 110%
[21]
  viability, T/C: 108%
[22]
  viability, T/C: 126%
[23]
  viability, T/C: 137%
[24]
  viability, T/C: 116%
[25]
  viability, T/C: 98.2%
[26]
  viability, T/C: 123%
[27]
  viability, T/C: 117%
[28]
  viability, T/C: 127%
[29]
  viability, T/C: 137%
[30]
  viability, T/C: 101%
[31]
  viability, T/C: 122%
[32]
  viability, T/C: 114%
[33]
  viability, T/C: 107%
[34]
  viability, T/C: 92.9%
[35]
  viability, T/C: 92.1%
[36]
  viability, T/C: 62.8%

## NC1c2ccccc2OC12CCN(c1cnc3c(N4CCCc5ncccc54)n[nH]c3n1)CC2 (stereo unspecified) + CCn1c(-c2cccnc2C(C)OC)c2c3cc(ccc31)N1CCOC(CC(NC(=O)C(C(C)C)N(C)C(=O)C3(F)CCN(C(=O)C#CC(C)(C)N(C)C)CC3)C(=O)N3CCCC(N3)C(=O)OCC(C)(C)C2)C1
Second compound 0.000949 µM
  pIC50: < 5.00
Second compound 0.003 µM
  pIC50: < 5.00
Second compound 0.00949 µM
  pIC50: < 5.00
Second compound 0.03 µM
  pIC50: < 5.00
Second compound 0.0949 µM
  pIC50: < 5.00
Second compound 0.3 µM
  pIC50: 5.39
[1]
  viability, T/C: 84.6%
[2]
  viability, T/C: 102%
[3]
  viability, T/C: 114%
[4]
  viability, T/C: 122%
[5]
  viability, T/C: 109%
[6]
  viability, T/C: 70.3%
[7]
  viability, T/C: 108%
[8]
  viability, T/C: 96.5%
[9]
  viability, T/C: 119%
[10]
  viability, T/C: 119%
[11]
  viability, T/C: 104%
[12]
  viability, T/C: 74.6%
[13]
  viability, T/C: 100%
[14]
  viability, T/C: 110%
[15]
  viability, T/C: 121%
[16]
  viability, T/C: 119%
[17]
  viability, T/C: 104%
[18]
  viability, T/C: 66.9%
[19]
  viability, T/C: 111%
[20]
  viability, T/C: 89%
[21]
  viability, T/C: 117%
[22]
  viability, T/C: 114%
[23]
  viability, T/C: 105%
[24]
  viability, T/C: 76%
[25]
  viability, T/C: 102%
[26]
  viability, T/C: 94.1%
[27]
  viability, T/C: 112%
[28]
  viability, T/C: 91.2%
[29]
  viability, T/C: 83.4%
[30]
  viability, T/C: 60.8%
[31]
  viability, T/C: 94.5%
[32]
  viability, T/C: 88.5%
[33]
  viability, T/C: 75.5%
[34]
  viability, T/C: 65.9%
[35]
  viability, T/C: 54.6%
[36]
  viability, T/C: 38.3%

## Nc1ccn(C2OC(CO)C(O)C2(F)F)c(=O)n1 (stereo unspecified) + CCn1c(-c2cccnc2C(C)OC)c2c3cc(ccc31)N1CCOC(CC(NC(=O)C(C(C)C)N(C)C(=O)C3(F)CCN(C(=O)C#CC(C)(C)N(C)C)CC3)C(=O)N3CCCC(N3)C(=O)OCC(C)(C)C2)C1
Second compound 0.000949 µM
  pIC50: 8.35
Second compound 0.003 µM
  pIC50: 8.37
Second compound 0.00949 µM
  pIC50: 8.46
Second compound 0.03 µM
  pIC50: 8.34
Second compound 0.0949 µM
  pIC50: > 8.50
Second compound 0.3 µM
  pIC50: > 8.50
Second compound 0.000949 µM, first compound 0.00316 µM
  viability, T/C: 67.5%
Second compound 0.000949 µM, first compound 0.01 µM
  viability, T/C: 10.1%
[1]
  viability, T/C: 8.11%
[2]
  viability, T/C: 7.98%
[3]
  viability, T/C: 8.36%
[4]
  viability, T/C: 8.73%
Second compound 0.003 µM, first compound 0.00316 µM
  viability, T/C: 63.9%
Second compound 0.003 µM, first compound 0.01 µM
  viability, T/C: 11.2%
[7]
  viability, T/C: 8.78%
[8]
  viability, T/C: 8.02%
[9]
  viability, T/C: 8.07%
[10]
  viability, T/C: 8.41%
Second compound 0.00949 µM, first compound 0.00316 µM
  viability, T/C: 53.5%
Second compound 0.00949 µM, first compound 0.01 µM
  viability, T/C: 10.5%
[13]
  viability, T/C: 9.25%
[14]
  viability, T/C: 7.85%
[15]
  viability, T/C: 8.92%
[16]
  viability, T/C: 8.55%
Second compound 0.03 µM, first compound 0.00316 µM
  viability, T/C: 68.8%
Second compound 0.03 µM, first compound 0.01 µM
  viability, T/C: 10.9%
[19]
  viability, T/C: 8.53%
[20]
  viability, T/C: 8.14%
[21]
  viability, T/C: 8.68%
[22]
  viability, T/C: 8.3%
Second compound 0.0949 µM, first compound 0.00316 µM
  viability, T/C: 44.6%
Second compound 0.0949 µM, first compound 0.01 µM
  viability, T/C: 10.5%
[25]
  viability, T/C: 8.39%
[26]
  viability, T/C: 7.33%
[27]
  viability, T/C: 8.62%
[28]
  viability, T/C: 7.75%
Second compound 0.3 µM, first compound 0.00316 µM
  viability, T/C: 30.3%
Second compound 0.3 µM, first compound 0.01 µM
  viability, T/C: 7.82%
[31]
  viability, T/C: 6.28%
[32]
  viability, T/C: 6.15%
[33]
  viability, T/C: 6.47%
[34]
  viability, T/C: 5.78%
